From PubChem BioAssay AID1845210 (Molecular Pharmacology Branch, DTP, NCI, 2023)
“And” between values parts separate entries of the source, which are not always exact repeats. Equal entries are not always repeated.

System: NCI-H226 complex tumor spheroids, viability
Experiment: Anticancer human tumor NCI-H226 cell line growth inhibition;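 also: spheroids exposed to compound for 7 days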;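 as to viability, T/C: 100% = DMSO vehicle control viability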
Conditions: for viability, T/C: stronger effect = lower value
Excerpt: Multicellular complex tumor spheroid response to DNA repair inhibitors in combination with DNA-damaging drugs
This study explores the anticancer activities of DNA-damaging drugs and inhibitors of DNA damage repair, both as single agents and in combinations. Complex tumor spheroids comprised of malignant cells, endothelial cells and mesenchymal stem cells served as an in vitro model for human solid tumors. This model system incorporates physiologically relevant features and patient-derived or established malignant cell lines with clinically relevant genetic alterations from many tumor types. Twenty-six patient-derived or established malignant cell lines were evaluated representing sarcoma, melanoma, small cell lung cancer (SCLC), non-small cell lung cancer (NSCLC), as well as bladder, ovarian and pancreatic cancers. The concentration ranges selected for each drug and investigational agent were based upon clinically achievable concentrations if the clinical Cmax of the agent was known.
Compounds. The drugs and compounds olaparib (NSC753686), talazoparib (NSC767125), berzosertib (NSC777718), elimusertib (NSC800525), nedisertib (NSC802822), VX-984 (NSC792969), AZD-1390 (NSC803789), temozolomide (NSC362856), topotecan (NSC609699), trabectedin (NSC813783), staurosporine (NSC755774), and gemcitabine (NSC613327) were obtained from the National Cancer Institute (NCI) Developmental Therapeutics Program Chemical Repository. The FDA-approved anticancer drug set is available from the Developmental Therapeutics Program at https://dtp.cancer.gov/organization/dscb/obtaining/available_plates.htm. […] The stock solutions were prepared in dimethyl sulfoxide (DMSO, Sigma-Aldrich, St. Louis, MO, cat. D2650) at 400-fold the tested concentration and stored at -70 degrees C. Prior to their use, the stock solutions were diluted in fresh medium and the final DMSO concentration in the assay was 0.25% (v/v). All drugs and investigational agents were tested over a range starting from a high concentration at or near the clinical Cmax and decreasing in half-log increments. If the clinical Cmax for an agent had not been determined, the highest concentration tested was 10 microM.
Cell Lines. The patient-derived cancer cell (PDC) lines: 156681-154-R-J1-PDC, 283228-195-R-J1-PDC, 287954-098-R-J1-PDC, 292921-168-R-J2-PDC, 349418-098-R-PDC, 425362-245-T-J1-PDC, 556581-035-R-J1-PDC, and BL0293-F563-PDC were received from the NCI Patient-Derived Models Repository (PDMR, https://pdmr.cancer.gov). The established cell lines HS-SY-2 (RRID:CVCL_8719), MPNST, and SYO-1 (RRID:CVCL_7146) were obtained from the Sloan Kettering Institute. The alveolar soft parts sarcoma cell line ASPS-1 (RRID:CVCL_S738) was established at the NCI and grown from internal seed stocks. The following established cell lines were purchased from the American Type Culture Collection (ATCC, Manassas, VA): G-401 (ATCC, cat. CRL-1441, RRID:CVCL_0270), SW982 (ATCC, cat. HTB-93, RRID:CVCL_1734), VA-ES-BJ (ATCC, cat. CRL-2138, RRID:CVCL_1785), NCI-H719 (ATCC, cat. CRL-5837, RRID:CVCL_1582), NCI-H196 (ATCC, cat. CRL-5823, RRID:CVCL_1509), NCI-H841 (ATCC, cat. CRL-5845, RRID:CVCL_1595), NCI-H1618 (ATCC, cat. CRL-5879, RRID:CVCL_1480), NCI-H1876 (ATCC, cat. CRL-5902, RRID:CVCL_1503), DMS 114 (ATCC, cat. CRL-2066; RRID:CVCL_1174), NCI-H211 (ATCC, cat. CRL-5824; RRID:CVCL_1529), and SW 1271 (ATCC, cat. CRL-2177, RRID:CVCL_1716). The small cell lung cancer cell line COR-L88 was purchased from Sigma-Aldrich (cat. 92031917-1VL, RRID:CVCL_1141). The non-small cell lung cancer cell lines NCI-H226 (RRID:CVCL_1544) and NCI-H322M (RRID:CVCL_1557) were established at the NCI and grown from internal seed stocks. Pooled donor human umbilical vein endothelial cells (HUVEC, Lonza, cat. CC-2519) and human mesenchymal stem cells (hMSC, Lonza, cat. PT-2501) were purchased from Lonza (Walkersville, MD).
Cell Culture. All cells were maintained in an incubator at 37 degrees C and 5% CO2 with 95% humidity. […]

For `Cn1ncnc1[C@H]1c2n[nH]c(=O)c3cc(F)cc(c23)N[C@@H]1c1ccc(F)cc1`, the viability, T/C (compound 0.00949 µM) was 96.2% and 89.2% and 90.4%, the viability, T/C (compound 0.03 µM) was 94.6% and 95.9% and 92.7% and the viability, T/C (compound 0.0949 µM) was 87.4% and 93.6% and 101%. For the same molecule, the viability, T/C (compound 0.3 µM) was 89.4% and 101% and 88.2%, the viability, T/C (compound 0.949 µM) was 88.6% and 84.1% and 87% and the viability, T/C (compound 3 µM) was 94.2% and 99.2% and 107%. For the same molecule, the IC50 (curve of compound) was > 3 µM.

With `Cn1nnc2c(C(N)=O)ncn2c1=O` the viability, T/C (compound 3.16 µM) was 112% [middle of 10 runs], the viability, T/C (compound 10 µM) was 108% [middle of 10 runs] and the viability, T/C (compound 31.6 µM) was 110% [middle of 10 runs]. The viability, T/C (compound 100 µM) was 109% [middle of 10 runs] and the IC50 (compound alone, run of 12/02/2019) was > 100 µM.

`O=C(c1cc(Cc2n[nH]c(=O)c3ccccc23)ccc1F)N1CCN(C(=O)C2CC2)CC1` was tested, and the viability, T/C (compound 0.0949 µM) was 98.6% and 105% and 103%, the viability, T/C (compound 0.3 µM) was 97.1% and 100% and 96.8% and the viability, T/C (compound 0.949 µM) was 104% (2×) and 101%. The viability, T/C (compound 3 µM) was 98.5% and 99.3% and 93.9%, the viability, T/C (compound 9.49 µM) was 96.9% and 87.4% and 106% and the viability, T/C (compound 30 µM) was 92.1% and 79% and 86.7%. The IC50 (curve of compound) was > 30 µM.

For `[2H]c1nc(C)nc([2H])c1-c1cc(NC[C@@H](C)c2cccc3c(C(=O)NC)ccnc23)ncn1`, the viability, T/C (compound 0.0316 µM) was 93.8% and 95.7% and 112%, the viability, T/C (compound 0.1 µM) was 101% and 95.3% and 97.7% and the viability, T/C (compound 0.316 µM) was 103% and 106% and 88.5%. The viability, T/C (compound 1 µM) was 107% and 106% and 93.5%, the viability, T/C (compound 3.16 µM) was 101% and 99.3% and 88.1% and the viability, T/C (compound 10 µM) was 111% and 114% and 106%. For the same molecule, the IC50 (curve of compound) was > 10 µM.

With `O=C(c1cc(Cc2n[nH]c(=O)c3ccccc23)ccc1F)N1CCN(C(=O)C2CC2)CC1` + CC[C@@]1(O)C(=O)OCc2c1cc1n(c2=O)Cc2cc3c(CN(C)C)c(O)ccc3nc2-1 the IC50 (curve of first compound, second compound 0.003 µM) was > 30 µM, the IC50 (curve of first compound, second compound 0.00949 µM) was > 30 µM and the IC50 (curve of first compound, second compound 0.03 µM) was > 30 µM. For the same molecule, the IC50 (curve of first compound, second compound 0.0949 µM) was > 30 µM, the IC50 (curve of first compound, second compound 0.3 µM) was > 30 µM and the viability, T/C (second compound 0.003 µM, first compound 0.0949 µM) was 103%. For the same molecule, the viability, T/C (second compound 0.003 µM, first compound 0.3 µM) was 95.8%, the viability, T/C (second compound 0.003 µM, first compound 0.949 µM) was 100% and the viability, T/C (second compound 0.003 µM, first compound 3 µM) was 106%. The viability, T/C (second compound 0.003 µM, first compound 9.49 µM) was 97.9%, the viability, T/C (second compound 0.003 µM, first compound 30 µM) was 100% and the viability, T/C (second compound 0.00949 µM, first compound 0.0949 µM) was 94.7%. It also gave a viability, T/C (second compound 0.00949 µM, first compound 0.3 µM) of 91.2%, a viability, T/C (second compound 0.00949 µM, first compound 0.949 µM) of 95.9% and a viability, T/C (second compound 0.00949 µM, first compound 3 µM) of 91%. For the same molecule, the viability, T/C (second compound 0.00949 µM, first compound 9.49 µM) was 85.9%, the viability, T/C (second compound 0.00949 µM, first compound 30 µM) was 81.1% and the viability, T/C (second compound 0.03 µM, first compound 0.0949 µM) was 88.9%. It also gave a viability, T/C (second compound 0.03 µM, first compound 0.3 µM) of 90.4%, a viability, T/C (second compound 0.03 µM, first compound 0.949 µM) of 90.1% and a viability, T/C (second compound 0.03 µM, first compound 3 µM) of 91.2%. The viability, T/C (second compound 0.03 µM, first compound 9.49 µM) was 96.5%, the viability, T/C (second compound 0.03 µM, first compound 30 µM) was 89.9% and the viability, T/C (second compound 0.0949 µM, first compound 0.0949 µM) was 78.4%. The viability, T/C (second compound 0.0949 µM, first compound 0.3 µM) was 74.4%, the viability, T/C (second compound 0.0949 µM, first compound 0.949 µM) was 80.2% and the viability, T/C (second compound 0.0949 µM, first compound 3 µM) was 79.8%. The viability, T/C (second compound 0.0949 µM, first compound 9.49 µM) was 74.9%, the viability, T/C (second compound 0.0949 µM, first compound 30 µM) was 78.8% and the viability, T/C (second compound 0.3 µM, first compound 0.0949 µM) was 68.9%. For the same molecule, the viability, T/C (second compound 0.3 µM, first compound 0.3 µM) was 68.7%, the viability, T/C (second compound 0.3 µM, first compound 0.949 µM) was 72.7% and the viability, T/C (second compound 0.3 µM, first compound 3 µM) was 66.8%. The viability, T/C (second compound 0.3 µM, first compound 9.49 µM) was 70.6% and the viability, T/C (second compound 0.3 µM, first compound 30 µM) was 60.7%.
